# Experimental data reported in the Deep4Chem optical property database.
# Assay: photoluminescence quantum yield (fraction); solvent given as SMILES
# [1] = in O=P(c1ccccc1)(c1ccccc1)c1ccccc1Oc1ccccc1P(=O)(c1ccccc1)c1ccccc1
structure (smiles),measurement,setting,value
CCCSc1ccc2n1[B-](F)(F)[N+]1=CC=CC1=C2c1ccccc1,photoluminescence quantum yield,in CC#N,0.03
same,photoluminescence quantum yield,in CCCCCC,0.03
same,photoluminescence quantum yield,in CCOC(C)=O,0.03
same,photoluminescence quantum yield,in CO,0.02
same,photoluminescence quantum yield,in ClCCl,0.04
N#Cc1ccc2nc3c(=O)[nH]c(=O)[nH]c3nc2c1,photoluminescence quantum yield,in ClCCCl,0.016
S=c1[nH]nc(-c2ccc(/C=C/c3ccc(-c4n[nH]c(=S)o4)cc3)cc2)o1,photoluminescence quantum yield,in CN(C)C=O,0.33
CCN(CC)c1ccc2cc(/C=C/C(=C(C#N)C#N)c3ccc4c(c3)c3ccccc3n4CC)c(=O)oc2c1,photoluminescence quantum yield,in CC(C)=O,0.174
same,photoluminescence quantum yield,in CCOC(C)=O,0.125
same,photoluminescence quantum yield,in CN(C)C=O,0.194
same,photoluminescence quantum yield,in CS(C)=O,0.185
same,photoluminescence quantum yield,in Cc1ccccc1,0.041
same,photoluminescence quantum yield,in ClCCl,0.146
CC1=c2c3c4cccc5cccc(c=3c(C)[n+]2[B-](F)(F)n2c(C)c3c(c21)-c1cccc2cccc-3c12)c54,photoluminescence quantum yield,in ClC(Cl)Cl,0
COC(=O)c1cc(=O)n(C)c2cc(-c3cccc(N(C)C)c3)sc12,photoluminescence quantum yield,in CC#N,0.03
same,photoluminescence quantum yield,in ClCCl,0.01
c1ccc(-c2nn(-c3ccccc3)c3nc4ccc(N(c5ccccc5)c5ccccc5)cc4cc23)cc1,photoluminescence quantum yield,in C1CCCCC1,0.76
same,photoluminescence quantum yield,in C1CCOC1,0.7
same,photoluminescence quantum yield,in CC#N,0.46
same,photoluminescence quantum yield,in CC(C)=O,0.59
same,photoluminescence quantum yield,in CCCCCl,0.7
same,photoluminescence quantum yield,in CCCCOCCCC,0.76
same,photoluminescence quantum yield,in CN(C)C=O,0.5
COc1ccc(N(c2ccccc2)c2ccc(OC)cc2)cc1,photoluminescence quantum yield,in Cc1ccccc1,0.03
O=C(O)c1ccc(-c2nc(-c3ccccc3)c3c4ccccc4ccn23)cc1,photoluminescence quantum yield,in CC#N,0.38
COC(=O)c1[nH]c(-c2ccccc2)c2nnc3ccc(OC)cc3c12,photoluminescence quantum yield,in ClCCl,0.0207
c1cc2ccc3ccc(OP4(Oc5ccc6ccc7cccc8ccc5c6c78)=NP(Oc5ccc6ccc7cccc8ccc5c6c78)(Oc5ccc6ccc7cccc8ccc5c6c78)=NP(Oc5ccc6ccc7cccc8ccc5c6c78)(Oc5ccc6ccc7cccc8ccc5c6c78)=N4)c4ccc(c1)c2c34,photoluminescence quantum yield,in ClCCl,0.92
N#C/C(=C/Nc1ccc(C#N)cc1)c1nc(-c2ccccc2)cs1,photoluminescence quantum yield,in CC#N,0
same,photoluminescence quantum yield,in CCO,0.0001
same,photoluminescence quantum yield,in CN(C)C=O,0.0001
same,photoluminescence quantum yield,in Cc1ccccc1,0.0001
same,photoluminescence quantum yield,in ClCCl,0.0001
COC(=O)C(NC(=O)OC(C)(C)C)c1ccc2oc(-c3cc(OC)c(OC)cc3OC)nc2c1 (stereo unspecified),photoluminescence quantum yield,in CC1CCCCC1,0.58
same,photoluminescence quantum yield,in CC#N,0.79
same,photoluminescence quantum yield,in CO,0.81
CC1=CC(C)=[N+]2C1=C(c1ccc(C(=O)OC3C[C@@H]4CC[C@]3(C)C4(C)C)cc1)c1c(C)cc(C)n1[B-]2(F)F (stereo partly specified),photoluminescence quantum yield,in Cc1ccccc1,0.37
CCCCCCN(CCCCCC)c1ccc(C#Cc2ccc(C#Cc3ccc(-c4ccc(C#Cc5ccc(C#Cc6ccc(N(CCCCCC)CCCCCC)cc6)cc5)cc4)cc3)cc2)cc1,photoluminescence quantum yield,in Cc1ccccc1,0.82
COc1ccc(-c2c3ccccc3c(C#Cc3ccccc3)c3cc4cc(C)sc4cc23)cc1,photoluminescence quantum yield,in ClCCl,0.73
CCOCCOCCOC(=O)/C=C/C1=CC2=C(c3c(C)cc(C)cc3C)c3cc(/C=C/C(=O)OCCOCCOCC)cn3[B-](F)(F)[N+]2=C1,photoluminescence quantum yield,in ClCCl,0.34
CCn1c2ccccc2c2cc(-c3cc(-c4ccc5c(c4)c4ccccc4n5CC)nc(-c4ccc(C#N)cc4)n3)ccc21,photoluminescence quantum yield,in C1CCOC1,0.08
same,photoluminescence quantum yield,in CCOC(C)=O,0.09
same,photoluminescence quantum yield,in CN(C)C=O,0.07
same,photoluminescence quantum yield,in Cc1ccccc1,0.34
same,photoluminescence quantum yield,in ClCCl,0.11
CCC1(CC)c2ccccc2-c2c1c1c(c3c2C(CC)(CC)c2cc(B(c4c(C)cc(C)cc4C)c4c(C)cc(C)cc4C)ccc2-3)C(CC)(CC)c2ccccc2-1,photoluminescence quantum yield,in C1CCOC1,0.56
CC(C)(C)c1cc(C(C)(C)C)c2oc3c(c2c1)C=CN1C(=O)C2=C4c5oc6c(C(C)(C)C)cc(C(C)(C)C)cc6c5C=CN4C(=O)C2=C31,photoluminescence quantum yield,in CN(C)C=O,0.6
same,photoluminescence quantum yield,in ClC(Cl)Cl,0.99
C/C=C/c1cc(OC)cc(OC)c1,photoluminescence quantum yield,in CC#N,0.05
same,photoluminescence quantum yield,in CCCCCC,0.04
CC1(C)C(/C=C/C=C/C=C/C=C2/N(CCCCCC(=O)O)c3ccc(S(=O)(=O)[O-])cc3C2(C)C)=[N+](CCCCCC(=O)O)c2ccc(S(=O)(=O)[O-])cc21,photoluminescence quantum yield,in CO,0.62
same,photoluminescence quantum yield,in O,0.28
Nc1cc(N)cc(-c2nc3ccccc3s2)c1,photoluminescence quantum yield,in C1CCCCC1,0.102
same,photoluminescence quantum yield,in C1COCCO1,0.06
same,photoluminescence quantum yield,in CC#N,0.05
same,photoluminescence quantum yield,in CC(C)O,0.055
same,photoluminescence quantum yield,in CCOC(C)=O,0.053
same,photoluminescence quantum yield,in CCOCC,0.061
same,photoluminescence quantum yield,in CO,0.015
same,photoluminescence quantum yield,in O,0.0091
CCCCN1C(=S)c2cccc3cccc(c23)C1=S,photoluminescence quantum yield,in Cc1ccccc1,0.01
Cc1ccc(-c2ccc(-c3ccc(-c4ccc(C)cc4)cc3/C(=C(/c3ccccc3)c3cc(-c4ccc(C)cc4)ccc3-c3ccc(-c4ccc(C)cc4)cc3)c3ccccc3)cc2)cc1,photoluminescence quantum yield,in C1CCOC1,0.3
CCc1c(C)c2n(c1C)[B-](F)(F)[N+]1=C(NCc3ccc(OC)cc3)C(SC#N)=CC1=C2C,photoluminescence quantum yield,in CC#N,0.83
same,photoluminescence quantum yield,in CCCCCC,0.91
same,photoluminescence quantum yield,in CCOC(C)=O,0.9
same,photoluminescence quantum yield,in CO,0.85
same,photoluminescence quantum yield,in ClCCl,0.93
C(=C1c2ccccc2CCc2ccccc21)c1ccc(C=C2c3ccccc3CCc3ccccc32)cc1,photoluminescence quantum yield,in C1CCOC1,0.001
CCCCCCCCC1(CCCCCCCC)c2cc(-c3ccc(C#N)cc3)ccc2-c2ccc(-c3ccc(C#N)cc3)cc21,photoluminescence quantum yield,in ClC(Cl)Cl,0.95
CN(C)c1ccc(/C=C/c2ncnc3ccccc23)cc1,photoluminescence quantum yield,in ClCCl,0.07
CC(=O)c1nc(-c2ccc(N(C)C)cc2)oc1C,photoluminescence quantum yield,in CC#N,0.029
same,photoluminescence quantum yield,in CCO,0.019
same,photoluminescence quantum yield,in CCOC(C)=O,0.03
same,photoluminescence quantum yield,in CCOCC,0.016
same,photoluminescence quantum yield,in ClCCl,0.044
Cc1cc2oc3ccccc3c2c2[nH]c3ccccc3c12,photoluminescence quantum yield,in ClCCl,0.485
COc1ccccc1-c1nc2c3ccccc3c3ccccc3c2o1,photoluminescence quantum yield,in Cc1ccccc1,0.53
CCOC(=O)c1cc(C(=O)OCC)c2cc(OC)ccc2n1,photoluminescence quantum yield,in CCO,0.53
O=P1(c2ccccc2)C(c2ccc(N(c3ccccc3)c3ccccc3)cc2)=Cc2cc3ccccc3cc21 (stereo unspecified),photoluminescence quantum yield,in ClCCl,0.85
C[Si](C)(C)C#Cc1ccc2c3cccc4cccc(c5cccc1c52)c43,photoluminescence quantum yield,in C1CCCCC1,0.88
N#CC1=CC(c2ccccc2)=CC(C#N)=P1(c1ccccc1)c1ccccc1,photoluminescence quantum yield,in ClC(Cl)Cl,0.75
CC1=CC(C)=[N+]2C1=C(c1c3ccccc3c(-c3ccccc3)c3ccccc13)c1c(C)cc(C)n1[B-]2(F)F,photoluminescence quantum yield,in CC#N,0.007
same,photoluminescence quantum yield,in CCCCCC,0.9
same,photoluminescence quantum yield,in CCO,0.02
same,photoluminescence quantum yield,in CN(C)C=O,0.01
same,photoluminescence quantum yield,in Cc1ccccc1,0.79
same,photoluminescence quantum yield,in ClCCl,0.024
COc1ccccc1CC(=O)OCc1c(C)c(=O)n2c(=O)c(C)c(C)n12,photoluminescence quantum yield,in CCO,0.636
c1ccc(-c2nc3c(ccc4[nH]ccc43)o2)cc1,photoluminescence quantum yield,in C1CCCCC1,0.6
same,photoluminescence quantum yield,in C1COCCO1,0.78
same,photoluminescence quantum yield,in CC#N,0.72
same,photoluminescence quantum yield,in CO,0.55
same,photoluminescence quantum yield,in Cc1ccccc1,0.69
same,photoluminescence quantum yield,in O,0.54
CC1=C2CCc3ccccc3C2=[N+]2C1=C(c1ccc(I)cc1)c1c(C)c3c(n1[B-]2(F)F)-c1ccccc1CC3,photoluminescence quantum yield,in ClC(Cl)Cl,0.72
CCCC1(CCC)c2ccccc2-c2ccc(-c3ccc4c(c3)C(CCC)(CCC)c3cc(-c5ccc6c(c5)C(CCC)(CCC)c5ccccc5-6)ccc3-4)cc21,photoluminescence quantum yield,in C1CCCCC1,0.91
CC(C)(C)c1ccc2c(c1)c1cc(C(C)(C)C)ccc1n2-c1ccc(-c2nc(-c3ccc(-n4c5ccc(C(C)(C)C)cc5c5cc(C(C)(C)C)ccc54)cc3)nc(-c3ccc(P(=O)(c4ccccc4)c4ccccc4)cc3)n2)cc1,photoluminescence quantum yield,[1],0.74
COC(=O)c1ccc(C2=C3C(C)=CC(C)=[N+]3[B-](F)(F)n3c(/C=C/c4c[nH]cn4)cc(C)c32)cc1,photoluminescence quantum yield,in ClC(Cl)Cl,0.93
CCN(CC)c1ccc2cc(-c3nc4cc(C(=O)Nc5cccc(OC)c5)ccc4o3)c(=O)oc2c1,photoluminescence quantum yield,in ClCCl,0.21
CNc1cccc2c1C(=O)c1ccccc1-2,photoluminescence quantum yield,in C1CCCCC1,0.042
same,photoluminescence quantum yield,in CC#N,0.065
same,photoluminescence quantum yield,in CCO,0.064
same,photoluminescence quantum yield,in c1ccccc1,0.065
c1ccc(-c2nc(-c3ccccc3)nc(-c3ccc(N4c5ccccc5C5(c6ccccc64)c4ccccc4N(c4ccc(-c6nc(-c7ccccc7)nc(-c7ccccc7)n6)cc4)c4ccccc45)cc3)n2)cc1,photoluminescence quantum yield,[1],0.79
CCC(CC)n1c2ccccc2c2cc3c(cc21)c1ccccc1n3C(CC)CC,photoluminescence quantum yield,in ClC(Cl)Cl,0.16
CCN(CC)c1ccc(-c2cc3c(s2)c(C(=O)OC)cc(=O)n3C)cc1,photoluminescence quantum yield,in C1CCOC1,0.97
same,photoluminescence quantum yield,in CC#N,0.08
same,photoluminescence quantum yield,in CCO,0.04
same,photoluminescence quantum yield,in CN(C)C=O,0.16
same,photoluminescence quantum yield,in CS(C)=O,0.1
same,photoluminescence quantum yield,in Cc1ccccc1,0.98
same,photoluminescence quantum yield,in ClC(Cl)Cl,0.99
same,photoluminescence quantum yield,in ClCCl,0.91
CN(C)c1ccc(C(=Cc2ccc(/C=C/c3ccc(C#N)cc3)cc2)c2ccc(N(C)C)cc2)cc1,photoluminescence quantum yield,in C1CCOC1,0.042
CCCCCCN1C(=O)c2cccc3cc(/N=C\c4nc5ccccc5s4)cc(c23)C1=O,photoluminescence quantum yield,in ClC(Cl)Cl,0.002
CCOC(=O)CN1C(=O)C2=C(c3ccc(N4CCCCC4)cc3)N(CC(=O)OCC)C(=O)C2=C1c1ccccc1,photoluminescence quantum yield,in CC#N,0.01
same,photoluminescence quantum yield,in CS(C)=O,0.12
same,photoluminescence quantum yield,in Cc1ccccc1,0.34
CC[N+](CC)=c1ccc2c(-c3ccccc3C(=O)O)c3oc4cc(N)ccc4c3oc-2c1,photoluminescence quantum yield,in CCO,0.778
same,photoluminescence quantum yield,in ClCCl,0.726
same,photoluminescence quantum yield,in O,0.126
COc1ccc(C2=C(c3ccc(OC)cc3)C(c3ccccc3)=[N+]3C2=Nc2c(-c4ccc(OC)cc4)c(-c4ccc(OC)cc4)c(-c4ccccc4)n2[B-]3(F)F)cc1,photoluminescence quantum yield,in Cc1ccccc1,0.01
CC(C)CCC[C@@H](C)[C@H]1CC[C@H]2[C@@H]3CC=C4C[C@@H](OC(=O)Oc5cc(/C=C/C=C/c6ccc(N(C)C)cc6)ccc5[N+](=O)[O-])CC[C@]4(C)[C@H]3CC[C@]12C,photoluminescence quantum yield,in C1CCCCC1,0.29
same,photoluminescence quantum yield,in C1COCCO1,0.08
same,photoluminescence quantum yield,in CCCCCCC,0.28
same,photoluminescence quantum yield,in Cc1ccccc1,0.17
OCc1ccc2c3cccc4cccc(c5cccc1c52)c43,photoluminescence quantum yield,in CCO,0.95
